Experimental data: patent publication US9598440B2, “Inhibitors of IRAK4 activity” (MERCK SHARP & DOHME CORP., priority 2012, dated 2017)

Target: IRAK4 (Homo sapiens (Human), UniProt Q9NWZ3)
Experiment: Determination of IRAK4 kinase activity (IMAP fluorescence polarization, phosphorylation of fluorescent peptide substrate)
Format: biochemical
Details: 0.5 nM GST tagged IRAK4, 100 nM peptide substrate RP7030, 100 μM ATP, 30 minutes at 25° C.
Procedure, shortened: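 GST-tagged IRAK4 (0.5 nM) phosphorylated 100 nM fluorescent peptide substrate with 100 µM ATP in Tris-HCl pH 7.2, 1 mM MgCl2, 1 mM DTT, 0.01% Tween 20 for 30 min at 25 °C. Phosphorylation read by IMAP nanoparticle binding as fluorescence polarization increase.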

IRAK4, sequence (Q9NWZ3 whole entry): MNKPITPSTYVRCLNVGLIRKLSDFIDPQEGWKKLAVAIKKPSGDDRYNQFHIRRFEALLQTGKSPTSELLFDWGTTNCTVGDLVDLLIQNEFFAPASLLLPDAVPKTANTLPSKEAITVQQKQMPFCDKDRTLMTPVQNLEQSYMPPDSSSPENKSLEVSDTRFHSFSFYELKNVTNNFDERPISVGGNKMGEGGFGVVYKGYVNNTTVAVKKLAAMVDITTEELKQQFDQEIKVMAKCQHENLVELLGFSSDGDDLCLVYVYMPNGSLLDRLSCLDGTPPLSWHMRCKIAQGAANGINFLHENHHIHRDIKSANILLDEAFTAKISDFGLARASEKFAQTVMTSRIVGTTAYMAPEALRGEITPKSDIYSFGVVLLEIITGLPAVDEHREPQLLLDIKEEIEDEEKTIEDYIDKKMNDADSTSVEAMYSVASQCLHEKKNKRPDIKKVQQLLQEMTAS

Row | SMILES | IC50
1 | COc1cc(Nc2nc(C)c(-c3nc4ccccc4s3)c(N[C@@H]3C[C@H](CO)[C@@H](O)[C@H]3O)n2)ccn1 [Example 105, (1R,2S,3R,5R)-3-((5-(benzo[d]thiazol-2-yl)-2-((2-methoxypyridin-4-yl)amino)-6-methylpyrimidin-4-yl)amino)-5-(hydroxymethyl)cyclopentane-1,2-diol] | 0.093 µM
2 | Cc1nc(Nc2cccc(Cl)c2)nc(N[C@@H]2C[C@H](CO)[C@@H](O)[C@H]2O)c1-c1nc2ccccc2s1 [Example 106, (1R,2S,3R,5R)-3-((5-(benzo[d]thiazol-2-yl)-2-((3-chlorophenyl)amino)-6-methylpyrimidin-4-yl)amino)-5-(hydroxymethyl)cyclopentane-1,2-diol] | 0.519 µM
3 | Cc1cc(Nc2ncc(-c3nc4ccccc4s3)c(N[C@H]3C[C@@H](CO)[C@H](O)[C@@H]3O)n2)cc(C)n1 [Example 108, 5-(benzo[d]thiazol-2-yl)-6-(((1S,2R,3 S,4S)-2,3-dihydroxy-4-(hydroxymethyl)cyclopentyl)amino)-2-((2,6-dimethylpyridin-4-yl)amino)pyrimidine] | 0.384 µM
4 | CC(C)(O)[C@H]1C[C@@H](Nc2nc(NC3CCC3)ncc2-c2nc3ccccc3s2)[C@H](O)[C@@H]1O [Example 128, (1R,2S,3R,5S)-3-((5-(benzo[d]thiazol-2-yl)-2-(cyclobutylamino)pyrimidin-4-yl)amino)-5-(2-hydroxypropan-2-yl)cyclopentane-1,2-diol] | 0.05 µM
5 | CC(C)(O)[C@H]1C[C@@H](Nc2nc(N)ncc2-c2nc3ccccc3s2)[C@H](O)[C@@H]1O [Example 130, (1R,2S,3R,5S)-3-((2-amino-5-(benzo[d]thiazol-2-yl)pyrimidin-4-yl)amino)-5-(2-hydroxypropan-2-yl)cyclopentane-1,2-diol] | 0.023 µM
6 | CC(C)(O)[C@H]1C[C@@H](Nc2nc(NC3CCN(S(C)(=O)=O)CC3)ncc2-c2nc3ccccc3s2)[C@H](O)[C@@H]1O [Example 131, (1R,2S,3R,5S)-3-((5-(benzo[d]thiazol-2-yl)-2-((1-(methylsulfonyl)piperidin-4-yl)amino)pyrimidin-4-yl)amino)-5-(2-hydroxypropan-2-yl)cyclopentane-1,2-diol] | 0.382 µM
7 | Cc1csc(-c2cnc(N)nc2N[C@@H]2C[C@H](C(C)(C)O)[C@@H](O)[C@H]2O)n1 [Example 132, (1R,2S,3R,5S)-3-((2-amino-5-(4-methylthiazol-2-yl)pyrimidin-4-yl)amino)-5-(2-hydroxypropan-2-yl)cyclopentane-1,2-diol] | 0.054 µM
8 | Cc1csc(-c2cnc(NC3CCC3)nc2N[C@@H]2C[C@H](C(C)(C)O)[C@@H](O)[C@H]2O)n1 [Example 134, (1R,2S,3R,5S)-3-((2-(cyclobutylamino)-5-(4-methylthiazol-2-yl)pyrimidin-4-yl)amino)-5-(2-hydroxypropan-2-yl)cyclopentane-1,2-diol] | 0.27 µM
9 | COc1cc(Nc2ncc(-c3nc4ccccc4s3)c(N[C@@H]3C[C@H](CO)[C@@H](O)[C@H]3OC)n2)ccn1 [Example 139, (1R,2S,3R,5R)-3-((5-(benzo[d]thiazol-2-yl)-2-((2-methoxypyridin-4-yl)amino)pyrimidin-4-yl)amino)-5-(hydroxymethyl)-2-methoxycyclopentanol] | 0.029 µM
10 | COc1cc(Nc2ncc(-c3ccc4ccccc4n3)c(N[C@@H]3C[C@H](CO)[C@@H](O)[C@H]3OC)n2)ccn1 [Example 141, (1R,2S,3R,5R)-5-(hydroxymethyl)-2-methoxy-3-((2-((2-methoxypyridin-4-yl)amino)-5-(quinolin-2-yl)pyrimidin-4-yl)amino)cyclopentanol] | 0.033 µM
11 | CO[C@@H]1[C@H](O)[C@@H](CO)C[C@H]1Nc1nc(N)ncc1-c1nc2ccccc2s1 [Example 142, (1R,2S,3R,5R)-3-((2-amino-5-(benzo[d]thiazol-2-yl)pyrimidin-4-yl)amino)-5-(hydroxymethyl)-2-methoxycyclopentanol] | 0.068 µM
12 | COC[C@H]1C[C@@H](Nc2nc(Nc3ccnc(OC)c3)ncc2-c2nc3ccccc3s2)[C@H](O)[C@@H]1O [Example 143, (1R,2S,3R,5R)-3-((5-(benzo[d]thiazol-2-yl)-2-((2-methoxypyridin-4-yl)amino)pyrimidin-4-yl)amino)-5-(methoxymethyl)cyclopentane-1,2-diol] | 0.095 µM

The next molecules have a lower IC50 than those just listed; values first:

Row | IC50 | SMILES
13 | 0.008 µM | Cc1cc(Nc2nc(C)c(-c3nc4ccccc4s3)c(N[C@@H]3C[C@H](C(C)(C)O)[C@@H](O)[C@H]3O)n2)cc(C)n1 [Example 107, 5-(benzo[d]thiazol-2-yl)-6-(((1R,2S,3R,4S)-2,3-dihydroxy-4-(2-hydroxypropan-2-yl)cyclopentyl)amino)-2-((2,6-dimethylpyridin-4-yl)amino)-4-methylpyrimidine]
14 | 0.0002 µM | Cc1cc(Nc2ncc(-c3ccc4ccccc4n3)c(N[C@@H]3C[C@H](C(C)(C)O)[C@@H](O)[C@H]3O)n2)ccn1 [Example 124, 6-(((1R,2S,3R,4R)-2,3-dihydroxy-4-(2-hydroxypropan-2-yl)cyclopeltyl)amino)-2-((2-methylpyridin-4-yl)amino)-5-(quinolin-2-yl)pyrimidine]
15 | 0.016 µM | Cc1cc(Nc2ncc(-c3nc4ccccc4s3)c(N[C@@H]3C[C@H](C(C)(C)O)[C@@H](O)[C@H]3O)n2)ccn1 [Example 127, (1R,2S,3R,5S)-3-((5-(benzo[d]thiazol-2-yl)-2-((2-methylpyridine-4-yl)amino)pyrimidin-4-yl)amino)-5-(2-hydroxypropan-2-yl)cyclopentane-1,2-diol]
16 | 0.0014 µM | CC(C)(O)[C@H]1C[C@@H](Nc2nc(Nc3cccc(C(N)=O)c3)ncc2-c2nc3ccccc3s2)[C@H](O)[C@@H]1O [Example 129, 3-((5-(benzo[d]thiazol-2-yl)-4-(((1R,2S,3R,4S)-2,3-dihydroxy-4-(2-hydroxypropan-2-yl)cyclopentyl)amino)pyrimidin-2-yl)amino)benzamide]
17 | 0.0002 µM | Cc1cc(Nc2ncc(-c3nc(C)cs3)c(N[C@@H]3C[C@H](C(C)(C)O)[C@@H](O)[C@H]3O)n2)cc(C)n1 [Example 133, (1R,2S,3R,5S)-3-((2-((2,6-dimethylpyridin-4-yl)amino)-5-(4-methylthiazol-2-yl)pyrimidin-4-yl)amino)-5-(2-hydroxypropan-2-yl)cyclopentane-1,2-diol]
18 | 0.001 µM | COc1cc(Nc2ncc(-c3nc(C)cs3)c(N[C@@H]3C[C@H](C(C)(C)O)[C@@H](O)[C@H]3O)n2)ccn1 [Example 135, (1S,2R,3 S,5R)-3-(2-hydroxypropan-2-yl)-5-((2-((2-methoxypyridin-4-yl)amino)-5-(4-methylthiazol-2-yl)pyrimidin-4-yl)amino)cyclopentane-1,2-diol]
19 | 0.009 µM | CO[C@@H]1[C@H](O)[C@@H](CO)C[C@H]1Nc1nc(Nc2cc(C)nc(C)c2)ncc1-c1nc2ccccc2s1 [Example 140, (1R,2S,3R,5R)-3-((5-(benzo[d]thiazol-2-yl)-2-((2,6-dimethylpyridin-4-yl)amino)pyrimidin-4-yl)amino)-5-(hydroxymethyl)-2-methoxycyclopentanol]
20 | 0.003 µM | Cc1cc(Nc2ncc(-c3nc4ccccc4s3)c(N[C@@H]3C[C@H](CF)[C@@H](O)[C@H]3O)n2)cc(C)n1 [Example 144, (1R,2S,3R,5S)-3-((5-benzo[d]thiazol-2-yl)-2-((2,6-dimethylpyridin-4-yl)amino-pyrimidin-4-yl)amino)-5-(fluoromethyl)cyclopentane-1,2-diol]
